According to patent US8173120B2, “Method of preventing reduced feed intake in animals and treatment of disease conditions” (Precision Nutrition Pty Ltd, priority 2005, dated 2012):

Legend:
[1] = horses, very high concentrations (500 mg/kg complete feed); cited from earlier work
[2] = tested on: lactic acid producing bacteria; assay: in vitro function assay: lactic acid and pH after incubation of faecal/colonic samples from horses fed virginiamycin pellets; assay type: in vivo
Description: Twelve horses were housed individually and fed 2.5 kg/d of a commercial horse concentrate each morning. Approximately 6 kg of medium quality lucerne hay was fed after animals had consumed the concentrate.
The experiment was run in three periods with 4 animals in the stables during each period. Each period lasted 12 days: five days to allow adaptation to the stables and the dietary regime, and then 7 days when medicated pellets containing different concentrations of virginiamycin were fed. Faecal samples were taken on the day before feeding medicated feed and then on days 2, 4 and 6 of feeding the medicated pellets.
The effectiveness of each dose rate and time on treatment was determined using an in vitro function assay to determine the amount of lactic acid produced during in vitro incubation of faecal material or samples taken from the distal colon. The fermentation of faecal material was carried out as follows. Fresh faecal material was obtained prior to the morning feed. Where warm material was available in the stable this was used, otherwise a rectal sample was obtained. A sub-sample of 150 g was mixed with an equal volume of distilled water and then strained through nylon gauze. Aliquots of supernatant were dispensed into 3 replicate tubes (4 ml/tube) and 1 ml of glucose solution (50 mg glucose/ml) was added before pricking the lid of the plastic vial with a 25 g needle and incubating for 20 to 24 hours at 37°. Following incubation the measurements of pH were made before centrifugation of a sub-sample prior to L-lactic acid analysis.
The results of the in vitro function assay are summarised in Tables 2 and 3 and represented graphically in FIG. 3. It is relevant to note that the level of glucose used in the in vitro incubations is effectively higher than any amount of carbohydrate which could be used in vivo. In the in vitro model, no volatile fatty acids are removed from the incubation flask through “absorption”.
The result of this is that the pH drops in vitro by more than it would in vivo and that a lactate-based fermentation develops more readily. It is therefore probably unrealistic to expect that lactate production can be completely controlled in this in vitro incubation model. Initially it was considered that the “baseline” in the in vitro model could be set around 10 mmol/L for an effective dose rate of virginiamycin. However, given the variable response around the 0.5 mg/kg dose rate in terms of lactic acid accumulation in the in vitro model it may be advisable to set a lower threshold for mean lactic acid concentration in determining the effective dose rate.

[3] = horse 1, 640 mg/d, 1.422 mg/kg, 2 days on medicated feed
[4] = horse 1, 640 mg/d, 1.422 mg/kg, 6 days on medicated feed
[5] = horse 2, 160 mg/d, 0.343 mg/kg, 2 days on medicated feed
[6] = horse 2, 160 mg/d, 0.343 mg/kg, 4 days on medicated feed
[7] = horse 3, 1280 mg/d, 2.639 mg/kg, 2 days on medicated feed
[8] = horse 3, 1280 mg/d, 2.639 mg/kg, 4 days on medicated feed
[9] = horse 3, 1280 mg/d, 2.639 mg/kg, 6 days on medicated feed
[10] = horse 4, 20 mg/d, 0.042 mg/kg, 2 days on medicated feed
[11] = horse 4, 20 mg/d, 0.042 mg/kg, 4 days on medicated feed
[12] = horse 4, 20 mg/d, 0.042 mg/kg, 6 days on medicated feed
[13] = horse 5, 160 mg/d, 0.359 mg/kg, 2 days on medicated feed
[14] = horse 5, 160 mg/d, 0.359 mg/kg, 4 days on medicated feed
[15] = horse 5, 160 mg/d, 0.359 mg/kg, 6 days on medicated feed
[16] = horse 6, 40 mg/d, 0.091 mg/kg, 2 days on medicated feed
[17] = horse 6, 40 mg/d, 0.091 mg/kg, 4 days on medicated feed
[18] = horse 7, 640 mg/d, 1.475 mg/kg, 2 days on medicated feed
[19] = horse 7, 640 mg/d, 1.475 mg/kg, 4 days on medicated feed
[20] = horse 7, 640 mg/d, 1.475 mg/kg, 6 days on medicated feed
[21] = horse 8, 80 mg/d, 0.154 mg/kg, 2 days on medicated feed
[22] = horse 8, 80 mg/d, 0.154 mg/kg, 6 days on medicated feed
[23] = horse 9, 80 mg/d, 0.180 mg/kg, 2 days on medicated feed
[24] = horse 9, 80 mg/d, 0.180 mg/kg, 4 days on medicated feed
[25] = horse 10, 320 mg/d, 0.702 mg/kg, 2 days on medicated feed
[26] = horse 10, 320 mg/d, 0.702 mg/kg, 4 days on medicated feed
[27] = horse 11, 160 mg/d, 0.432 mg/kg, 2 days on medicated feed
[28] = horse 11, 160 mg/d, 0.432 mg/kg, 6 days on medicated feed
[29] = horse 12, 320 mg/d, 0.693 mg/kg, 2 days on medicated feed
[30] = horse 12, 320 mg/d, 0.693 mg/kg, 6 days on medicated feed

## virginiamycin
[1]
  effect on feed intake: reduce feed intake
[2]; 0.4 to 0.7 mg per kg bodyweight per day, after three to four days
  control of lactic acid production: partial and variable levels of controlling lactic acid production
[2]; 1.4 and 2.6 mg/kg body weight, 48 hours after first treatment
  control of lactic acid producing bacteria in faecal/colonic digesta: good control of lactic acid producing bacteria
[2]; 1.4 and 2.6 mg/kg body weight, days 4 and 6 as well as day 2
  capacity for lactic acid production: remained low
[2]; average of 0.4 and 0.7 mg/kg bodyweight per day, days 2, 4 and 6, response more variable and less complete than higher dose rates
  capacity for lactic acid production: reduction in capacity for lactic acid production
[2]; dose rates over 1.4 mg per kg body weight, after two days of treatment
  control of lactic acid production: almost complete control
[2]; [3]
  L-lactate concentration following incubation of faecal samples, Mean: 0 mmol/L
  pH measured following incubation of faecal samples, Mean: 5.11
[2]; [4]
  L-lactate concentration following incubation of faecal samples, Mean: 4 mmol/L
  pH measured following incubation of faecal samples, Mean: 4.94
[2]; [5]
  L-lactate concentration following incubation of faecal samples, Mean: 17 mmol/L
  pH measured following incubation of faecal samples, Mean: 4.61
[2]; [6]
  L-lactate concentration following incubation of faecal samples, Mean: 21 mmol/L
  pH measured following incubation of faecal samples, Mean: 4.76
[2]; horse 2, 160 mg/d, 0.343 mg/kg, 6 days on medicated feed
  L-lactate concentration following incubation of faecal samples, Mean: 12 mmol/L
[2]; [7]
  L-lactate concentration following incubation of faecal samples, Mean: 0 mmol/L
  pH measured following incubation of faecal samples, Mean: 4.43
[2]; [8]
  L-lactate concentration following incubation of faecal samples, Mean: 0 mmol/L
  pH measured following incubation of faecal samples, Mean: 4.71
[2]; [9]
  L-lactate concentration following incubation of faecal samples, Mean: 1 mmol/L
  pH measured following incubation of faecal samples, Mean: 4.59
[2]; [10]
  L-lactate concentration following incubation of faecal samples, Mean: 47 mmol/L
  pH measured following incubation of faecal samples, Mean: 3.63
[2]; [11]
  L-lactate concentration following incubation of faecal samples, Mean: 47 mmol/L
  pH measured following incubation of faecal samples, Mean: 4.02
[2]; [12]
  L-lactate concentration following incubation of faecal samples, Mean: 31 mmol/L
  pH measured following incubation of faecal samples, Mean: 4.28
[2]; [13]
  L-lactate concentration following incubation of faecal samples, Mean: 0 mmol/L
  pH measured following incubation of faecal samples, Mean: 4.48
[2]; [14]
  L-lactate concentration following incubation of faecal samples, Mean: 0 mmol/L
  pH measured following incubation of faecal samples, Mean: 4.73
[2]; [15]
  L-lactate concentration following incubation of faecal samples, Mean: 0 mmol/L
  pH measured following incubation of faecal samples, Mean: 5.09
[2]; [16]
  L-lactate concentration following incubation of faecal samples, Mean: 23 mmol/L
  pH measured following incubation of faecal samples, Mean: 4.11
[2]; [17]
  L-lactate concentration following incubation of faecal samples, Mean: 25 mmol/L
  pH measured following incubation of faecal samples, Mean: 4.11
[2]; horse 6, 40 mg/d, 0.091 mg/kg, 6 days on medicated feed
  L-lactate concentration following incubation of faecal samples, Mean: 24 mmol/L
[2]; [18]
  L-lactate concentration following incubation of faecal samples, Mean: 1 mmol/L
  pH measured following incubation of faecal samples, Mean: 4.85
[2]; [19]
  L-lactate concentration following incubation of faecal samples, Mean: 1 mmol/L
  pH measured following incubation of faecal samples, Mean: 4.64
[2]; [20]
  L-lactate concentration following incubation of faecal samples, Mean: 1 mmol/L
  pH measured following incubation of faecal samples, Mean: 4.67
[2]; [21]
  L-lactate concentration following incubation of faecal samples, Mean: 5 mmol/L
  pH measured following incubation of faecal samples, Mean: 4.41
[2]; [22]
  L-lactate concentration following incubation of faecal samples, Mean: 44 mmol/L
  pH measured following incubation of faecal samples, Mean: 4.36
[2]; [23]
  L-lactate concentration following incubation of faecal samples, Mean: 4 mmol/L
  pH measured following incubation of faecal samples, Mean: 4.83
[2]; [24]
  L-lactate concentration following incubation of faecal samples, Mean: 37 mmol/L
  pH measured following incubation of faecal samples, Mean: 4.25
[2]; horse 9, 80 mg/d, 0.180 mg/kg, 6 days on medicated feed
  L-lactate concentration following incubation of faecal samples, Mean: 29 mmol/L
[2]; [25]
  L-lactate concentration following incubation of faecal samples, Mean: 1 mmol/L
  pH measured following incubation of faecal samples, Mean: 4.67
[2]; [26]
  L-lactate concentration following incubation of faecal samples, Mean: 1 mmol/L
  pH measured following incubation of faecal samples, Mean: 5.06
[2]; horse 10, 320 mg/d, 0.702 mg/kg, 6 days on medicated feed
  L-lactate concentration following incubation of faecal samples, Mean: 15 mmol/L
[2]; [27]
  L-lactate concentration following incubation of faecal samples, Mean: 4 mmol/L
  pH measured following incubation of faecal samples, Mean: 4.54
[2]; [28]
  L-lactate concentration following incubation of faecal samples, Mean: 19 mmol/L
  pH measured following incubation of faecal samples, Mean: 4.12
[2]; [29]
  L-lactate concentration following incubation of faecal samples, Mean: 36 mmol/L
  pH measured following incubation of faecal samples, Mean: 3.85
[2]; [30]
  L-lactate concentration following incubation of faecal samples, Mean: 3 mmol/L
  pH measured following incubation of faecal samples, Mean: 4.93
[2]; horses, low dose rates such as 0.1 mg per kg bodyweight per day
  prevention of over production of lactic acid: may not be effective in preventing over production of lactic acid
